According to patent US20260116944A1, “NOVEL TRIPLE GLP-1/GIP/GLUCAGON RECEPTOR AGONIST AND A PHARMACEUTICAL COMPOSITION FOR PREVENTING OR TREATING OBESITY COMPRISING THE SAME” (HANMI PHARM. CO., LTD., priority 2022, published 2026):
*1 amine or outer side, *2 acyl side, *3 side chain or, on linkers, in order; H or OH if unused. Bridges are numbered along the chain shown (N, C = ends). Where no end group is shown, it is not given here. Side-chain parts run from the residue outwards. [ ]: non-standard residue; d: D form. The star is where a group is joined. C20 diacid = O=C(O)CCCCCCCCCCCCCCCCCCC(=O)*; γGlu = O=C(O)[C@H](CCC(=O)[*:2])N[*:1]; AEEA = NCCOCCOCC(=O)O; Aib = CC(C)(N)C(=O)O

Assay: Weight loss effect in AMLN diet-induced obese mice
Assay type: in vivo
Conditions: 351 ug/kg, Q2D, subcutaneously, 2 weeks, vs. excipient control, p<0.001 one-way ANOVA, FIG. 1
Experimental: In order to confirm the weight loss effect of each of the three triple agonists of SEQ ID NO: 1, SEQ ID NO: 2, and SEQ ID NO: 4 prepared in the Example above, an AMLN (amylin) mouse model, known as an obesity model, was used. AMLN diet-induced mice were divided into an excipient control group and groups administered with three types of triple agonists (351 ug/kg, Q2D, subcutaneously), and the administration was repeated for 2 weeks.
After repeated administration for 2 weeks, the body weight was measured, and the change in body weight relative to the body weight immediately before administration (DO) was measured to evaluate weight loss effect.

Substance | weight loss efficacy (change in body weight relative to immediately before administration)
Y-Aib-QGTFTSDYSK(1)YLDEKRAKDFVQWLLDHHPSSGQPPPS (Y[Aib]QGTFTSDYSK([AEEA-AEEA-γGlu-C20 diacid])YLDEKRAKDFVQWLLDHHPSSGQPPPS-NH2; lactam 16-20; N-terminus assumed; SMILES CC(C)C[C@H](NC(=O)[C@H](Cc1ccc(O)cc1)NC(=O)[C@H](CCCCNC(=O)COCCOCCNC(=O)COCCOCCNC(=O)CC[C@H](NC(=O)CCCCCCCCCCCCCCCCCCC(=O)O)C(=O)O)NC(=O)[C@H](CO)NC(=O)[C@H](Cc1ccc(O)cc1)NC(=O)[C@H](CC(=O)O)NC(=O)[C@H](CO)NC(=O)[C@@H](NC(=O)[C@H](Cc1ccccc1)NC(=O)[C@@H](NC(=O)CNC(=O)[C@H](CCC(N)=O)NC(=O)C(C)(C)NC(=O)[C@@H](N)Cc1ccc(O)cc1)[C@@H](C)O)[C@@H](C)O)C(=O)N[C@@H](CC(=O)O)C(=O)N[C@H]1CCC(=O)NCCCC[C@@H](C(=O)N[C@@H](CC(=O)O)C(=O)N[C@@H](Cc2ccccc2)C(=O)N[C@H](C(=O)N[C@@H](CCC(N)=O)C(=O)N[C@@H](Cc2c[nH]c3ccccc23)C(=O)N[C@@H](CC(C)C)C(=O)N[C@@H](CC(C)C)C(=O)N[C@@H](CC(=O)O)C(=O)N[C@@H](Cc2c[nH]cn2)C(=O)N[C@@H](Cc2c[nH]cn2)C(=O)N2CCC[C@H]2C(=O)N[C@@H](CO)C(=O)N[C@@H](CO)C(=O)NCC(=O)N[C@@H](CCC(N)=O)C(=O)N2CCC[C@H]2C(=O)N2CCC[C@H]2C(=O)N2CCC[C@H]2C(=O)N[C@@H](CO)C(N)=O)C(C)C)NC(=O)[C@H](C)NC(=O)[C@H](CCCNC(=N)N)NC(=O)[C@H](CCCCN)NC1=O) [SEQ ID NO: 4, acylated triple agonist peptide, K(1) at position 12, lactam bridge E16-K20] | significant weight loss efficacy
Y-Aib-QGTFTSDYSK(1)YLDEKRAKEFVQWLLDHHPSSGQPPPS (Y[Aib]QGTFTSDYSK([AEEA-AEEA-γGlu-C20 diacid])YLDEKRAKEFVQWLLDHHPSSGQPPPS-NH2; lactam 16-20; N-terminus assumed; SMILES CC(C)C[C@H](NC(=O)[C@H](Cc1ccc(O)cc1)NC(=O)[C@H](CCCCNC(=O)COCCOCCNC(=O)COCCOCCNC(=O)CC[C@H](NC(=O)CCCCCCCCCCCCCCCCCCC(=O)O)C(=O)O)NC(=O)[C@H](CO)NC(=O)[C@H](Cc1ccc(O)cc1)NC(=O)[C@H](CC(=O)O)NC(=O)[C@H](CO)NC(=O)[C@@H](NC(=O)[C@H](Cc1ccccc1)NC(=O)[C@@H](NC(=O)CNC(=O)[C@H](CCC(N)=O)NC(=O)C(C)(C)NC(=O)[C@@H](N)Cc1ccc(O)cc1)[C@@H](C)O)[C@@H](C)O)C(=O)N[C@@H](CC(=O)O)C(=O)N[C@H]1CCC(=O)NCCCC[C@@H](C(=O)N[C@@H](CCC(=O)O)C(=O)N[C@@H](Cc2ccccc2)C(=O)N[C@H](C(=O)N[C@@H](CCC(N)=O)C(=O)N[C@@H](Cc2c[nH]c3ccccc23)C(=O)N[C@@H](CC(C)C)C(=O)N[C@@H](CC(C)C)C(=O)N[C@@H](CC(=O)O)C(=O)N[C@@H](Cc2c[nH]cn2)C(=O)N[C@@H](Cc2c[nH]cn2)C(=O)N2CCC[C@H]2C(=O)N[C@@H](CO)C(=O)N[C@@H](CO)C(=O)NCC(=O)N[C@@H](CCC(N)=O)C(=O)N2CCC[C@H]2C(=O)N2CCC[C@H]2C(=O)N2CCC[C@H]2C(=O)N[C@@H](CO)C(N)=O)C(C)C)NC(=O)[C@H](C)NC(=O)[C@H](CCCNC(=N)N)NC(=O)[C@H](CCCCN)NC1=O) [SEQ ID NO: 2, acylated triple agonist peptide, K(1) at position 12, lactam bridge E16-K20] | significant weight loss efficacy
